Data set [1] deals with Mus musculus. Put plainly: Toxicity in nu+/- mouse assessed as mortality at 286 mg/kg, po. It counts as organism-based. The note with it: in vivo.
Data set [2] relates to NCI-N87. As to the kind of experiment: Antitumor activity against human NCI-N87 cells xenografted in mouse assessed as tumor growth inhibition at 265 mg/kg, po. Type of data set: functional, organism-based. (In general: In xenograft studies the graft and the host belong to different species.)
The subject of data set [3] is Plasma. Put plainly: Drug level in mouse plasma treated with MPC-0767. Type of data set: ADME, cell-free.
A short description of data set [4]: Tmax in mouse at 200 mg/kg, po administered with 2% CMC by LC-ESI-MS/MS analysis. It counts as ADME, organism-based. The note with it: in vivo.
Data set [5] is described as follows: AUC in mouse at 200 mg/kg, po administered with 40% captisol by LC-ESI-MS/MS analysis. Type of data set: ADME, organism-based. The note with it: in vivo.
A short description of data set [6]: Tmax in mouse at 200 mg/kg, po administered with 40% captisol by LC-ESI-MS/MS analysis. Type of data set: ADME, organism-based. The note with it: in vivo.
The test system of data set [7] is Liver microsome. Put plainly: Drug level in human liver microsomes treated with MPC-0767. It counts as ADME. (Liver microsomes are a subcellular fraction often used to study metabolism.)
Data set [8] is described as follows: Cmax in mouse at 200 mg/kg, po administered with 2% CMC by LC-ESI-MS/MS analysis. It counts as ADME, organism-based. More on the design: dose 200 mg/kg, route oral. Particulars: in vivo.
A short description of data set [9]: Kinetic solubility of the compound at pH 6.5. Type of data set: physicochemical. Particulars: buffer, read-out: Kinetic_solubility.
Data set [10] in a line: Aqueous solubility of the compound in simulated intestinal fluid at pH 6.8. Type of data set: physicochemical.
Data set [11] in a line: Oral bioavailability in mouse at 200 mg/kg administered with 40% captisol by LC-ESI-MS/MS analysis. Type of data set: ADME, organism-based. Particulars: in vivo.
A short description of data set [12]: Apparent permeability of the compound at pH 6.2. Type of data set: physicochemical. The note with it: not told.
Data set [13] in a line: Drug level in simulated intestinal fluid treated with MPC-0767 at pH 6.8 in presence of pancreatin. Type of data set: physicochemical. Particulars: simulated gi fluid.
Data set [14] can be described thus: Cmax in mouse at 200 mg/kg, po administered with 40% captisol by LC-ESI-MS/MS analysis. Particulars: in vivo. More on the design: dose 200 mg/kg, route oral. It counts as ADME, organism-based.
The test system of data set [15] is Liver. As to the kind of experiment: Drug level in mouse liver microsomes treated with MPC-0767. It counts as ADME.
The nature of data set [16]: AUC in mouse at 200 mg/kg, po administered with 2% CMC by LC-ESI-MS/MS analysis. It counts as ADME, organism-based. The note with it: in vivo.
Data set [17] is described as follows: Oral bioavailability in mouse at 200 mg/kg administered with 2% CMC by LC-ESI-MS/MS analysis. Type of data set: ADME, organism-based. The note with it: in vivo.
In data set [18] the test system is NCI-N87. As to the kind of experiment: Antitumor activity against human NCI-N87 cells xenografted in mouse assessed as tumor growth inhibition at 200 mg/kg, po relative to control. Particulars: read-out: TGI. It counts as functional.
Data set [19] concerns Mus musculus. As to the kind of experiment: Oral bioavailability in mouse assessed as MPC-3100. Type of data set: ADME, organism-based. Particulars: in vivo.
In data set [20] the test system is NCI-N87. Put plainly: Antitumor activity against human NCI-N87 cells xenografted in mouse assessed as tumor regression. Type of data set: functional.
The nature of data set [21]: Aqueous solubility of the compound in simulated intestinal fluid at pH 6.5 to 6.8. Type of data set: physicochemical.
The nature of data set [22]: Half life in human liver microsomes in absence of NADPH. It counts as ADME.
Data set [23] in a line: Half life in simulated intestinal fluid at pH 6.8. Type of data set: ADME.
The test system of data set [24] is Mus musculus. Put plainly: Oral bioavailability in mouse assessed as MPC-3100 at 265 mg/kg administered with 2% CMC by LC-ESI-MS/MS analysis. It counts as ADME, organism-based. The note with it: in vivo.
Data set [25] relates to Mus musculus. Put plainly: Cmax in mouse assessed as MPC-3100 at 265 mg/kg, po administered with 2% CMC by LC-ESI-MS/MS analysis. The note with it: in vivo. More on the design: dose 265 mg/kg, route oral. It counts as ADME, organism-based.
Data set [26] in a line: Half life in mouse plasma. Type of data set: ADME, cell-free.
Data set [27] deals with Mus musculus. Put plainly: AUC in mouse assessed as MPC-3100 at 265 mg/kg, po administered with 2% CMC by LC-ESI-MS/MS analysis. It counts as ADME, organism-based. Particulars: in vivo.
A short description of data set [28]: Half life in human liver microsomes in presence of NADPH. Type of data set: ADME.
Data set [29] relates to Liver microsome. As to the kind of experiment: Prodrug conversion in human liver microsomes assessed as formation of MPC-3100. It counts as ADME.
Data set [30] in a line: Half life in simulated gastric fluid at pH 1.2 in presence of pepsin. Particulars: simulated gastric fluid with pepsin. It counts as ADME.
Data set [31] concerns Liver. As to the kind of experiment: Prodrug conversion in mouse liver microsomes assessed as formation of MPC-3100. Type of data set: ADME.
Data set [32] is described as follows: Half life in human plasma. Type of data set: ADME, cell-free.
Data set [33] deals with Plasma. Put plainly: Prodrug conversion in mouse plasma assessed as formation of MPC-3100. It counts as ADME, cell-free.
For data set [34], the system named is Mus musculus. Put plainly: Tmax in mouse assessed as MPC-3100 at 265 mg/kg, po administered with 2% CMC by LC-ESI-MS/MS analysis. Particulars: in vivo. It counts as ADME, organism-based.
Data set [35] is described as follows: Half life in mouse liver microsomes in presence of NADPH. It counts as ADME.
Data set [36] can be described thus: Half life in phosphate buffer at pH 7.4. It counts as physicochemical.
Data set [37] in a line: Half life in mouse liver microsomes in absence of NADPH. It counts as ADME.
Data set [38] is described as follows: Half life in simulated intestinal fluid at pH 6.8 in presence of pancreatin. It counts as ADME. The note with it: simulated intestinal fluid with pancreatin.
Data set [39] is described as follows: Half life in monkey plasma. The note with it: rhesus monkey. It counts as ADME, cell-free, Macaca mulatta.
Data set [40] concerns Mus musculus. As to the kind of experiment: Toxicity in mouse xenografted with human NCI-N87 cells assessed as body weight loss at 265 mg/kg, po. Type of data set: organism-based. Particulars: in vivo.
A short description of data set [41]: Half life in simulated gastric fluid at pH 1.2. Type of data set: ADME.
The nature of data set [42]: Toxicity in po dosed nu+/- mouse. It counts as organism-based. Particulars: in vivo.

Structures are written as SMILES. Values after ≈ are worked out from the molar mass of the structure shown. Active and inactive are the calls of the source. The rule behind the calls is not given here. A value given as a limit tells only on which side of the number the result lay.

On to `C[C@H](OC(=O)[C@@H](N)CCCCN)C(=O)N1CCC(CCn2c(Sc3cc4c(cc3Br)OCO4)nc3c(N)ncnc32)CC1.Cl.Cl.Cl`, for which the Activity entry in the data set on Mus musculus [1] is on record as “Toxic”.
With `C[C@H](N)C(=O)O[C@@H](C)C(=O)N1CCC(CCn2c(Sc3cc4c(cc3Br)OCO4)nc3c(N)ncnc32)CC1`, the TGI entry with NCI-N87 [2] is “Active”.
In the case of `C[C@H](O)C(=O)N1CCC(CCn2c(Sc3cc4c(cc3Br)OCO4)nc3c(N)ncnc32)CC1`, the Drug metabolism entry (in the data set with Plasma [3]; in the data set on Liver microsome [7]; in data set [13]; in the data set on Liver [15]) was “metabolite_detected” throughout. Also, the Tmax in data set [4] was 0.3 h; in [6], 1 h. The AUC worked out at 113000 ng·h/mL in data set [5] and 35100 ng·h/mL in data set [16]. Moreover, the results for the Cmax in data set [8] and in data set [14] were 7370 ng/mL and 24900 ng/mL, respectively. The solubility kinetic in [9] was determined as 10.2 µg/mL (≈ 18.6 µM). In data set [10], this compound had a solubility of 7.5 µg/mL (≈ 13.6 µM). Besides, the bioavailability was 67% in data set [11] and 21% in [17]. The Papp in data set [12] is 420 ×10⁻⁶ cm/s. Moreover, in the data set with NCI-N87 [18], the inhibition in vivo at 200 mg/kg is 46%.
As to `C[C@H](OC(=O)[C@@H](N)CCCCN)C(=O)N1CCC(CCn2c(Sc3cc4c(cc3Br)OCO4)nc3c(N)ncnc32)CC1`, in the data set on Mus musculus [19], the F is more than 40%. Also, the TGI in the data set on NCI-N87 [20] was more than 40%. This compound also came in with a solubility in data set [21] of more than 1000 µg/mL.
With `CS(=O)(=O)O.C[C@H](N)C(=O)O[C@@H](C)C(=O)N1CCC(CCn2c(Sc3cc4c(cc3Br)OCO4)nc3c(N)ncnc32)CC1`, the half-life in data set [22] was 2 min; in data set [23] it was 2.88 h; in data set [26] it was less than 2 min; in data set [28], 2 min; in [30] it was more than 4 h; in data set [32], 2.48 h. For the same compound, the half-life in [35] is less than 2 min; in data set [36], 2.42 h; in data set [37] it was less than 2 min; in data set [38], 0.367 h; in data set [39], 5 h; in data set [41] it was more than 4 h. Further, the F in the data set with Mus musculus [24] is reported as 56%. In addition, the Cmax in the data set on Mus musculus [25] amounted to 21562 ng/mL. The AUC in the data set with Mus musculus [27] was 94194 ng·h/mL. The Drug metabolism entry in the data set with Liver microsome [29], with Liver [31] and in the data set with Plasma [33] was “metabolite_detected” in each case. In addition, the solubility kinetic in [9] was 536 µg/mL. Also, the Tmax in the data set on Mus musculus [34] was determined as 1 h. The Papp in data set [12] was determined as 2.7 ×10⁻⁶ cm/s. For the same compound, in the data set with Mus musculus [40], the Activity result was “Non-toxic”. For the same compound, the solubility in data set [21] is more than 1000 µg/mL.
The compound `C[C@H](N)C(=O)O[C@@H](C)C(=O)N1CCC(CCn2c(Sc3cc4c(cc3Br)OCO4)nc3c(N)ncnc32)CC1.Cl.Cl` displayed an MTD in data set [42] of 252 mg/kg.

Usually Tmax stands for the time from dosing to the highest level. Broadly, the AUC is the area under the concentration-time curve, a measure of exposure. As a reminder, the Cmax is the maximum level reached in the sampled fluid or tissue. One may read the solubility as the concentration that dissolves in the medium under given conditions. By bioavailability is commonly meant the share of a dose that reaches the circulation, judged against a reference dose that is usually intravenous. A word on the Papp: it is the rate of passage across a membrane or cell layer, normalised by area and donor concentration. As a reminder, the half-life is how long it takes for the measured level to halve.

These data come from ChEMBL document CHEMBL3632515, “Discovery of an L-alanine ester prodrug of the Hsp90 inhibitor, MPC-3100” (Bioorg Med Chem Lett, 2015).
